Data taken from publication PMC12638379, “An innovative approach to development of new pyrazolylquinolin-2-one hybrids as dual EGFR and BRAF^V600E inhibitors” (Molecular Diversity, 2025).
Where two headings read alike, the source gives them in different places.

Experiments:
[1] = system: leukemia (MOLT-4) cell line; test: MTT antiproliferative assay, MOLT-4; format: cell-based, human
Protocol: (§1) After 24 h of culture incubation and supernatants discarded.

[2] = system: lung cancer (HOP-92) cell line; test: MTT antiproliferative assay, HOP-92; format: cell-based, human
Protocol: […]. […] See Appendix B.
as §1

[3] = system: breast cancer (T47D) cell line; test: MTT antiproliferative assay, T-47D
Protocol: The median inhibitory concentration (IC50) and GI50 (average IC50) against the three cancer cell lines were calculated. See Appendix B.
Cells were cultured using DMEM (Invitrogen/Life Technologies) supplemented with 10% FBS (Hyclone,), 10 ug/ml of insulin (Sigma), and 1% penicillin-streptomycin. Plate cells (cells density 1.2 – 1.8 × 10,000 cells/well) in a volume of 100µl complete growth medium + 100 ul of the tested compound per well in a 96-well plate for 24 hours before the MTT assay. In atypical experiment, one hundred micro liters of serial 10-fold diluted sterile tested compounds were added to final concentrations of […] using culture media as negative control. After 24 h of culture incubation and supernatants discarded. HOP-92 lung, MOLT-4 leukemia, and T-47D breast cell lines were trypsinized and washed with Ca2/Mg2 free PBS (pH 7.2). we removed cultures from incubator into laminar flow hood or other sterile work area. […] Each test should include a blank containing complete medium without cells. […] Add reconstituted MTT in an amount equal to 10% of the culture medium volume. Return cultures to incubator for 2-4 hours depending on cell type and maximum cell density. […] Spectrophotometrically absorbance was measured at a wavelength of 570 nm. Measure the background absorbance of multiwell plates at 690 nm and subtract from the […] measurement. Results from all experiments were recorded and the percentage of viable cells was calculated.

[4] = MTT cytotoxicity on normal cell line WI-38; conditions: human, WI-38 normal cells, % viability
[5] = system: NCI 60 cancer cell lines; test: NCI anticancer screening over a panel of 60 cancer cells, single concentration 10 µM; format: cell-based, human; conditions: Homo sapiens, read-out: % Growth Inhibition (GI %)
How it was run: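 Primary single-dose screen at 10 µM over the NCI panel of 60 human tumour cell lines (leukemia, CNS, lung, colon, kidney, ovary, breast, prostate). The standard NCI Developmental Therapeutics Program protocol was used.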

[6] = molecular target: T1, EGFR (Homo sapiens, UniProt P00533); test: EGFR inhibitory assay; format: biochemical; conditions: for %inh: EGFR, unit not given
T1 construct: EGFR cytoplasmic domain (EGFR-CD, amino acids 645–1186); His6 (N); made in house; host or cells: Sf-9 insect cells (baculovirus)
T1 sequence (P00533 669-1210): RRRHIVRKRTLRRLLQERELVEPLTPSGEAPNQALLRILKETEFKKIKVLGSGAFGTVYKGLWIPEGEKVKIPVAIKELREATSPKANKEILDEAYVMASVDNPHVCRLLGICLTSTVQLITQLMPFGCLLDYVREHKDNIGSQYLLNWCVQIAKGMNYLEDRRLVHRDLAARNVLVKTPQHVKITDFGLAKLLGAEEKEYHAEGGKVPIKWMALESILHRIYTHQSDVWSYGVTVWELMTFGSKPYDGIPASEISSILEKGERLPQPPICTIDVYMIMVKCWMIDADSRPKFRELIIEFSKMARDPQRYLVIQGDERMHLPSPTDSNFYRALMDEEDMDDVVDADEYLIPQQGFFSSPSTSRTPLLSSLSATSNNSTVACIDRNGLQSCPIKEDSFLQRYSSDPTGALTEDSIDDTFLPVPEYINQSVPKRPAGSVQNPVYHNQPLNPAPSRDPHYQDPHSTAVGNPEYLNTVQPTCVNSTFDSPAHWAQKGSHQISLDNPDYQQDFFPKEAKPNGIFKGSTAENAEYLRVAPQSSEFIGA

[7] = molecular target: BRAF^V600E (Homo sapiens, UniProt P15056, V600E); test: BRAF^V600E inhibitory assay (B-Raf (V600E) Kinase Assay); format: biochemical; conditions: read-out: BRAF^V600E inhibition IC50 ± SEM
BRAF^V600E, sequence (P15056 whole entry V600E): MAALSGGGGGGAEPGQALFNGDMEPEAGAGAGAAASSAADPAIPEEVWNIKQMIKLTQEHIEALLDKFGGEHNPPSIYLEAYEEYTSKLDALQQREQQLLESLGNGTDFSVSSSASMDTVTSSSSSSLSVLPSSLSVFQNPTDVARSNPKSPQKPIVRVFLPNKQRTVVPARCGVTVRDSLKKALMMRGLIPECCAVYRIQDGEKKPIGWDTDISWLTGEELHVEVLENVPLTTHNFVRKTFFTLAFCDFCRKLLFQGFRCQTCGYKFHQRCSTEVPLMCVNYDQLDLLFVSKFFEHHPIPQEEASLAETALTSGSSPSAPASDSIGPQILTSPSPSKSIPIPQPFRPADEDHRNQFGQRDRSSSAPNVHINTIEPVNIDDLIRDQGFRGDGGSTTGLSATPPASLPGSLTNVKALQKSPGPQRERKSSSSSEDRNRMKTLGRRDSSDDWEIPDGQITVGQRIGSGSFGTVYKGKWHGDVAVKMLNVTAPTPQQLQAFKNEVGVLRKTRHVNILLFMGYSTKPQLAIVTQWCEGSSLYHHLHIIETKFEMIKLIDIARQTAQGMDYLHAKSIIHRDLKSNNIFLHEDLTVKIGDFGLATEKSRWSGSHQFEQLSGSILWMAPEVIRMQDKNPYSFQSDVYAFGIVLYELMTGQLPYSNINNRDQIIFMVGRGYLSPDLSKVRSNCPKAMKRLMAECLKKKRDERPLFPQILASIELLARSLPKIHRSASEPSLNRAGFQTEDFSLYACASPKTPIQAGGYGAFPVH

Structure (SMILES): C/C(=N\Nc1ccc(C(=O)O)cc1)c1cnn(-c2cc(=O)[nH]c3ccccc23)c1C [Compound 4f, (E)-4-(2-(1-(5-methyl-1-(2-oxo-1,2-dihydroquinolin-4-yl)-1H-pyrazol-4-yl)ethylidene) hydrazineyl)benzoic acid]
- viability at 0.4 µM ([1]; Homo sapiens, MOLT-4, MOLT-4, MTT, 0.4uM): 70.3%
- viability at 1.6 µM ([1]; Homo sapiens, MOLT-4, MOLT-4, MTT, 1.6uM): 59.6%
- viability at 6.3 µM ([1]; Homo sapiens, MOLT-4, MOLT-4, MTT, 6.3uM): 58.5%
- viability at 25 µM ([1]; Homo sapiens, MOLT-4, MOLT-4, MTT, 25uM): 48.1%
- viability at 100 µM ([1]; Homo sapiens, MOLT-4, MOLT-4, MTT, 100uM): 39.1%
- IC50 ([1]; Homo sapiens, MOLT-4, MTT, read-out: Antiproliferative activity IC50 ± SEM, MOLT-4): 16.3 ± 0.65 µM
- % viability ([1]; MOLT-4, MTT, 0.4uM, listed as ws6, 0.4 µM): 70.3059%
- % viability ([1]; MOLT-4, MTT, 1.6uM, listed as ws6, 1.6 µM): 59.5561%
- % viability ([1]; MOLT-4, MTT, 6.3uM, listed as ws6, 6.3 µM): 58.5483%
- % viability ([1]; MOLT-4, MTT, 100uM, listed as ws6, 100 µM): 39.1122%
- % viability ([2]; HOP-92, MTT, 0.4uM, listed as ws6, 0.4 µM): 83.3554%
- % viability ([2]; HOP-92, MTT, 1.6uM, listed as ws6, 1.6 µM): 74.4032%
- % viability ([2]; HOP-92, MTT, 6.3uM, listed as ws6, 6.3 µM): 64.3236%
- % viability ([2]; HOP-92, MTT, 100uM, listed as ws6, 100 µM): 35.3448%
- viability at 0.4 µM ([2]; Homo sapiens, HOP-92, HOP-92, MTT, 0.4uM, read-out: % viability): 83.4%
- viability at 1.6 µM ([2]; Homo sapiens, HOP-92, HOP-92, MTT, 1.6uM, read-out: % viability): 74.4%
- viability at 6.3 µM ([2]; Homo sapiens, HOP-92, HOP-92, MTT, 6.3uM, read-out: % viability): 64.3%
- viability at 25 µM ([2]; Homo sapiens, HOP-92, HOP-92, MTT, 25uM, read-out: % viability): 51.8%
- viability at 100 µM ([2]; Homo sapiens, HOP-92, HOP-92, MTT, 100uM, read-out: % viability): 35.3%
- IC50 ([2]; Homo sapiens, HOP-92, MTT, read-out: Antiproliferative activity IC50 ± SEM, HOP-92): 24.9 ± 1.9 µM
- viability at 0.4 µM ([3]; Homo sapiens, T47D, T-47D, MTT, 0.4uM): 78.6%
- viability at 1.6 µM ([3]; Homo sapiens, T47D, T-47D, MTT, 1.6uM): 72.1%
- viability at 6.3 µM ([3]; Homo sapiens, T47D, T-47D, MTT, 6.3uM): 61.4%
- viability at 25 µM ([3]; Homo sapiens, T47D, T-47D, MTT, 25uM): 50.1%
- viability at 100 µM ([3]; Homo sapiens, T47D, T-47D, MTT, 100uM): 41.1%
- IC50 ([3]; Homo sapiens, T47D, read-out: Antiproliferative activity IC50 ± SEM, T-47D, MTT): 28.6 ± 0.99 µM
- % viability ([3]; T-47D, MTT, 1.6uM, listed as ws6, 1.6 µM): 72.1271%
- % viability ([3]; T-47D, MTT, 6.3uM, listed as ws6, 6.3 µM): 61.3692%
- % viability ([3]; T-47D, MTT, 100uM, listed as ws6, 100 µM): 41.0758%
- viability at 24 h, 0.4 µM ([4]; WI38, 0.4uM (log conc. -0.41)): 80%
- viability at 24 h, 1.6 µM ([4]; WI38, 1.6uM (log conc. 0.19)): 74.5%
- viability at 24 h, 6.3 µM ([4]; WI38, 6.3uM (log conc. 0.8)): 65.4%
- viability at 24 h, 25 µM ([4]; WI38, 25uM (log conc. 1.4)): 54.9%
- viability at 24 h, 100 µM ([4]; WI38, 100uM (log conc. 2)): 41.6%
- inhibition at 10 µM ([5]; 786-0, Renal cancer 786-0, 10 μM): < 5%
- inhibition at 10 µM ([5]; A498, Renal cancer A498, 10 μM): < 5%
- inhibition at 10 µM ([5]; A549, Non-small cell lung cancer A549/ATCC, 10 μM): < 5%
- inhibition at 10 µM ([5]; ACHN, Renal cancer ACHN, 10 μM): 5.83%
- inhibition at 10 µM ([5]; BT-549, Breast cancer BT-549, 10 μM): < 5%
- inhibition at 10 µM ([5]; CAKI-1, Renal cancer CAKI-1, 10 μM): 16.1%
- inhibition at 10 µM ([5]; CCRF-CEM, Leukemia CCRF-CEM, 10 μM): < 5%
- inhibition at 10 µM ([5]; COLO 205, Colon cancer COLO 205, 10 μM): < 5%
- inhibition at 10 µM ([5]; DU-145, Prostate cancer DU-145, 10 μM): < 5%
- inhibition at 10 µM ([5]; EKVX, Non-small cell lung cancer EKVX, 10 μM): < 5%
- inhibition at 10 µM ([5]; HCC 2998, Colon cancer HCC-2998, 10 μM): < 5%
- inhibition at 10 µM ([5]; HCT-15, Colon cancer HCT-15, 10 μM): < 5%
- inhibition at 10 µM ([5]; HCT-116, Colon cancer HCT-116, 10 μM): < 5%
- inhibition at 10 µM ([5]; HL-60, Leukemia HL-60(TB), 10 μM): < 5%
- inhibition at 10 µM ([5]; HOP-62, Non-small cell lung cancer HOP-62, 10 μM): 8.55%
- inhibition at 10 µM ([5]; HOP-92, Non-small cell lung cancer HOP-92, 10 μM): 79.8%
- inhibition at 10 µM ([5]; HT-29, Colon cancer HT29, 10 μM): < 5%
- inhibition at 10 µM ([5]; Hs-578T, Breast cancer HS 578T, 10 μM): 12.3%
- inhibition at 10 µM ([5]; IGROV-1, Ovarian cancer IGROV1, 10 μM): < 5%
- inhibition at 10 µM ([5]; K562, Leukemia K-562, 10 μM): < 5%
- inhibition at 10 µM ([5]; KM12, Colon cancer KM12, 10 μM): < 5%
- inhibition at 10 µM ([5]; LOX IMVI, Melanoma LOX IMVI, 10 μM): 10.8%
- inhibition at 10 µM ([5]; Leukemia SR, 10 μM): 12.2%
- inhibition at 10 µM ([5]; MCF7, Breast cancer MCF7, 10 μM): 5.99%
- inhibition at 10 µM ([5]; MDA-MB-231, Breast cancer MDA-MB-231/ATCC, 10 μM): 12.5%
- inhibition at 10 µM ([5]; MDA-MB-435, Melanoma MDA-MB-435, 10 μM): < 5%
- inhibition at 10 µM ([5]; MDA-MB-468, Breast cancer MDA-MB-468, 10 μM): < 5%
- inhibition at 10 µM ([5]; MOLT-4, Leukemia MOLT-4, 10 μM): < 5%
- inhibition at 10 µM ([5]; Melanoma M14, 10 μM): 8.95%
- inhibition at 10 µM ([5]; Melanoma MALM-3M, 10 μM): 9.22%
- inhibition at 10 µM ([5]; NCI-H23, Non-small cell lung cancer NCI-H23, 10 μM): 7.19%
- inhibition at 10 µM ([5]; NCI-H226, Non-small cell lung cancer NCI-H226, 10 μM): 10.9%
- inhibition at 10 µM ([5]; NCI-H322M, Non-small cell lung cancer NCI-H322M, 10 μM): < 5%
- inhibition at 10 µM ([5]; NCI-H460, Non-small cell lung cancer NCI-H460, 10 μM): < 5%
- inhibition at 10 µM ([5]; NCI-H522, Non-small cell lung cancer NCI-H522, 10 μM): 13.9%
- inhibition at 10 µM ([5]; NCI/ADR-RES, Ovarian cancer NCI/ADR-RES, 10 μM): < 5%
- inhibition at 10 µM ([5]; OVCAR-3, Ovarian cancer OVCAR-3, 10 μM): < 5%
- inhibition at 10 µM ([5]; OVCAR-4, Ovarian cancer OVCAR-4, 10 μM): 7.33%
- inhibition at 10 µM ([5]; OVCAR-5, Ovarian cancer OVCAR-5, 10 μM): < 5%
- inhibition at 10 µM ([5]; OVCAR-8, Ovarian cancer OVCAR-8, 10 μM): < 5%
- inhibition at 10 µM ([5]; Prostate cancer PC-3, 10 μM): 12.4%
- inhibition at 10 µM ([5]; RPMI-8226, Leukemia RPMI-8226, 10 μM): < 5%
- inhibition at 10 µM ([5]; RXF 393, Renal cancer RXF 393, 10 μM): 11.1%
- inhibition at 10 µM ([5]; SF-268, CNS Cancer SF-268, 10 μM): < 5%
- inhibition at 10 µM ([5]; SF-295, CNS Cancer SF-295, 10 μM): < 5%
- inhibition at 10 µM ([5]; SF-539, CNS Cancer SF-539, 10 μM): < 5%
- inhibition at 10 µM ([5]; SK-MEL-2, Melanoma SK-MEL-2, 10 μM): < 5%
- inhibition at 10 µM ([5]; SK-MEL-5, Melanoma SK-MEL-5, 10 μM): < 5%
- inhibition at 10 µM ([5]; SK-MEL-28, Melanoma SK-MEL-28, 10 μM): < 5%
- inhibition at 10 µM ([5]; SK-OV-3, Ovarian cancer SK-OV-3, 10 μM): < 5%
- inhibition at 10 µM ([5]; SN12C, Renal cancer SN12C, 10 μM): < 5%
- inhibition at 10 µM ([5]; SNB-19, CNS Cancer SNB-19, 10 μM): < 5%
- inhibition at 10 µM ([5]; SNB-75, CNS Cancer SNB-75, 10 μM): 12.9%
- inhibition at 10 µM ([5]; SW-620, Colon cancer SW-620, 10 μM): < 5%
- inhibition at 10 µM ([5]; T47D, Breast cancer T-47D, 10 μM): < 5%
- inhibition at 10 µM ([5]; TK-10, Renal cancer TK-10, 10 μM): < 5%
- inhibition at 10 µM ([5]; U-251, CNS Cancer U251, 10 μM): < 5%
- inhibition at 10 µM ([5]; UACC-62, Melanoma UACC-62, 10 μM): 6.43%
- inhibition at 10 µM ([5]; UACC-257, Melanoma UACC-257, 10 μM): < 5%
- inhibition at 10 µM ([5]; UO-31, Renal cancer UO-31, 10 μM): 45.2%
- %inh ([6]; conc 0.01 (log -2)): 10.6%
- %inh ([6]; conc 0.1 (log -1)): 26%
- %inh ([6]; conc 1 (log 0)): 61.8%
- %inh ([6]; conc 10 (log 1)): 80.6%
- %inh ([6]; conc 100 (log 2)): 92.1%
- IC50 ([6]; read-out: EGFR inhibition IC50 ± SEM): 0.64 ± 0.023 µM
- IC50 [7]: 0.41 ± 0.016 µM
